Test results from publication PMC9425435, “Antiviral Profiling of C-18- or C-19-Functionalized Semisynthetic Abietane Diterpenoids” (Journal of Natural Products, 2022).

What was measured:
ZIKV (Zika virus) [1] = assay: End-point titration technique (EPTT), cytopathic effect inhibition, ZIKV in Vero E6; format: cell-based; details: Vero E6, 10TCID50, EPTT
ZIKV (Zika virus) [2] = assay: Plaque reduction assay (PFU), ZIKV in Vero E6; format: cell-based; details: ZIKV, Vero E6, PFU/well 150 ± 25
Vero-E6 cells = assay: Cytotoxicity CC100 in Vero-E6 cells (72 h); details: Vero-E6 cells, 72h
BHK-21 cells = assay: Cytotoxicity CC100 in BHK-21 cells (6 days)
HHV-1, 29R strain = format: cell-based, human Alpha herpesvirus type 1; details: for Rf (reduction factor of the viral titer): Vero E6, 10TCID50, EPTT
[3] = tested on: CHIKV (Chikungunya virus); assay: End-point titration technique (EPTT), viral titer reduction factor, CHIKV in Vero E6; format: cell-based; details: for Rf (reduction factor of the viral titer): Vero E6, 10TCID50, EPTT
[4] = tested on: DENV-2 (Dengue virus type 2); assay: Plaque reduction assay (PFU), DENV-2 in BHK21; format: cell-based; details: for % inhibition (PFU): DENV-2, BHK21, PFU/well 150 ± 25
[5] = tested on: DENV-2 (Dengue virus type 2); assay: End-point titration technique (EPTT), cytopathic effect inhibition, DENV-2 in Vero E6; format: cell-based; details: DENV-2, Vero E6, 10TCID50, EPTT

| Molecule | inhibition ECytop (inhibitory cytopathic effect compared to the infection control) (ZIKV (Zika virus) [1]) | % inhibition (PFU) (ZIKV (Zika virus) [2]) | CC100 (100% cytotoxic concentration) (Vero-E6 cells) | CC100 (100% cytotoxic concentration) (BHK-21 cells) | Nontoxic concentration that showed higher viral reduction factor (HHV-1, 29R strain; Vero E6, EPTT, heparin) | Nontoxic concentration that showed higher viral reduction factor ([3]; Vero E6, EPTT, heparin) | CC100 (100% cytotoxic concentration) (Vero-E6 cells; heparin) | Rf (reduction factor of the viral titer) (HHV-1, 29R strain) | Rf (reduction factor of the viral titer) [3] | % inhibition (PFU) [4] | Most active concentration, in μM ([4]; DENV-2 PFU assay, conversion of 3.1 μg/mL) | inhibition ECytop (inhibitory cytopathic effect compared to the infection control) [5] |
| --- | --- | --- | --- | --- | --- | --- | --- | --- | --- | --- | --- | --- |
| COC(=O)[C@]1(C)CCC[C@]2(C)c3ccc(C(C)C)cc3CC[C@@H]12 [Compound 12, methyl dehydroabietate] | + | 25 ± 10% | >50 µg/mL | 50 µg/mL |  |  |  |  |  |  |  |  |
| heparin [reference compound] |  |  |  |  | 10 U.I. | 10 U.I. | >100 U.I |  |  |  |  |  |
| CC(C)c1ccc2c(c1O)CC[C@H]1[C@](C)(CO)CCC[C@]21C [Compound 26] | + |  | >25 µg/mL | >25 µg/mL |  |  |  | not active |  |  |  |  |
| COC(=O)[C@]1(C)CCC[C@]2(C)c3cc(OC(C)=O)c(C(C)C)cc3CC[C@@H]12 [Compound 16a] | + | 22 ± 13% | 50 µg/mL | 50 µg/mL |  |  |  |  | 10^2 |  |  |  |
| COC(=O)[C@]1(C)CCC[C@]2(C)c3ccc(C(C)C)c(O)c3CC[C@@H]12 [Compound 24, methyl 14-hydroxy-dehydroabietate] |  | 51 ± 15% | >25 µg/mL | >25 µg/mL |  |  |  |  | 10^2 | 48 ± 9% | ca. 9.3 μM |  |
| COC(=O)[C@@]1(C)CCC[C@]2(C)c3cc(C(C)=O)c(C(C)C)cc3CC[C@@H]12 [Compound 15b] |  | 29 ± 14% | >50 µg/mL | 50 µg/mL |  |  |  |  |  | 68 ± 20% |  |  |
| CC(C)c1cc2c(cc1O)[C@@]1(C)CCC[C@@](C)(C(=O)O)[C@@H]1CC2=O [Compound 23a, liquiditerpenoic acid A] |  |  | >50 µg/mL | 50 µg/mL |  |  |  |  |  |  |  |  |
| COC(=O)[C@@]1(C)CCC[C@]2(C)c3cc(O)c(C(C)C)cc3CC[C@@H]12 [Compound 18b] |  | 48 ± 12% | >50 µg/mL | 50 µg/mL |  |  |  | not active | 10^2 | 51 ± 8% |  |  |
| CC(C)c1cc2c(cc1O)[C@@]1(C)CCC[C@@](C)(C(=O)O)[C@@H]1CC2 [Compound 19a, 12-hydroxydehydroabietic acid] |  |  | 25 µg/mL | 12.5 µg/mL |  |  |  |  |  |  |  |  |
| COC(=O)[C@@]1(C)CCC[C@]2(C)c3cc(O)c(C(C)C)cc3C(=O)C[C@@H]12 [Compound 22b] |  |  | 25 µg/mL | 12.5 µg/mL |  |  |  | not active |  |  |  | + |
| CC(C)c1cc2c(cc1O)[C@@]1(C)CCC[C@@](C)(CO)[C@@H]1CC2=O [Compound 21a] |  | 27 ± 12% | 25 µg/mL | 12.5 µg/mL |  |  |  |  | 10^2 |  |  | + |
| CC(C)c1cc2c(cc1O)[C@@]1(C)CCC[C@](C)(CO)[C@@H]1CC2 [Compound 20b, 19-hydroxyferruginol] | + |  | 25 µg/mL | 12.5 µg/mL |  |  |  |  | 10^2 |  |  |  |
| COC(=O)[C@@]1(C)CCC[C@]2(C)c3cc(OC(C)=O)c(C(C)C)cc3CC[C@@H]12 [Compound 16b] | + | 29 ± 9% | 25 µg/mL | 25 µg/mL |  |  |  | not active |  |  |  | + |
